Where two headings read alike, the source gives them in different places.

For one data set, the target named is T1, DOR (δ opioid receptor) (Homo sapiens, UniProt P41143).
T1 construct: expressed in transfected cells; host or cells: HEK293
The experiment in a line: DOR radioligand binding ([3H]-DADLE, HEK293 cell homogenates). The following applies: for inhibition at 10 µM: Percent inhibition at 10,000 nM, [3H]-DADLE.

The next data set has as its target T2, MOR (μ opioid receptor) (Homo sapiens, UniProt P35372).
T2 construct: expressed in transfected cells; host or cells: HEK293
The experiment in a line: MOR radioligand binding ([3H]-DAMGO, HEK293 cell homogenates). The following applies: for inhibition at 10 µM: Percent inhibition at 10,000 nM, [3H]-DAMGO.

For the next data set, the system named is RAW macrophages. Nature of the data set: NO production (Griess assay), LPS/IFNγ-activated RAW264.7 macrophages. Type of data set: cell-based, mouse. As to conditions: Mus musculus, Macrophage, 24 h. For orientation: Nitrite, measured by Griess reagent, commonly stands in for NO production.
Another data set deals with HEPG2. Nature of the data set: Viability assay (CellTiter-Glo), HEPG2. The data set is classed as cell-based, human. As to conditions: for Cell viability (%) HEPG2 120 μM: CellTiter-Glo; for toxicity at 120 μM (in words): HepG2, 120 μM. Background: Cellular ATP, detected with luciferase, serves as a proxy for viable cell number.
The next data set deals with Mouse microglia. The experiment in a line: Cell viability (CellTiter-Glo), mouse microglia. Type of data set: cell-based. The following applies: 50 μM; for Cell viability (%) Mouse microglia 50 μM: CellTiter-Glo. The essentials: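 Mouse microglia (1×10^6 cells/mL) activated with 50 ng/ml LPS plus 150 U/mL IFNγ, incubated with compounds ~24 h at 37° C. Viability of remaining cells read by CellTiter-Glo luminescence after supernatant removal for Griess NO assay; […].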

The target of another data set is T3, KOR (κ opioid receptor) (Homo sapiens, UniProt P41145).
T3 construct: expressed in transfected cells; host or cells: HEK293 (stably transfected)
The experiment in a line: KOR radioligand binding ([3H]-U69593, HEK293 cell homogenates). The following applies: for inhibition at 10 µM: Percent inhibition at 10,000 nM.

The next data set concerns HEK293. The experiment in a line: Viability assay (CellTiter-Glo), HEK293. As to conditions: for Cell viability (%) HEK293 120 μM: CellTiter-Glo; for toxicity at 120 μM (in words): HEK293, 120 μM. The data set is classed as cell-based, human.
The mark [1] stands for this setting: concentration-dependent, [3H]-U69593, read-out: KOR (Ki).

Turning to `C#Cc1ccc2c(c1)C(c1ccccc1F)=N[C@H](C)c1c(C(=O)NC)ncn1-2` [MP-III-022], the inhibition at 10 µM at DOR (δ opioid receptor) came out at 22%; on MOR (μ opioid receptor), 3%; with RAW macrophages, 9 ± 5%; on KOR (κ opioid receptor) ([3H]-U69593) it was 80%. Besides, 50 µM produced 51 ± 7% inhibition in the data set with RAW macrophages. Further, in the data set with HEPG2, the “Cell viability (%) HEPG2 120 μM” value is listed as 94 ± 7%. Also, in the data set with Mouse microglia, the “Cell viability (%) Mouse microglia 50 μM” value was determined as 86 ± 2%. Further, the Ki at KOR (κ opioid receptor) (setting [1]) is 381 nM. Besides, the “Cell viability (%) HEK293 120 μM” value with HEK293 is 75 ± 13%.

Regarding `C#Cc1ccc2c(c1)C(c1ccccc1F)=N[C@H](C)c1c(-c3cnco3)ncn1-2` [GL-III-73], the inhibition at 10 µM stood at 4% on DOR (δ opioid receptor), 12% on MOR (μ opioid receptor), 1 ± 6% with RAW macrophages and 74% at KOR (κ opioid receptor) ([3H]-U69593). The “Cell viability (%) HEPG2 120 μM” value in the data set with HEPG2 worked out at 100 ± 9%. In addition, in the data set on Mouse microglia, the “Cell viability (%) Mouse microglia 50 μM” value is 80 ± 9%. For the same compound, the Ki on KOR (κ opioid receptor) turned out to be 449 nM. In the data set on HEK293, the “Cell viability (%) HEK293 120 μM” value is on record as 86 ± 6%.

As to `C[C@H]1N=C(c2ccccc2F)c2cc(Br)ccc2-n2cnc(C(=O)N(C)C)c21` [GL-III-69], the inhibition at 10 µM at DOR (δ opioid receptor) is 10%; on MOR (μ opioid receptor), 0%; in the data set with RAW macrophages, 0%; at KOR (κ opioid receptor) ([3H]-U69593) it was 75%. Further, the “Cell viability (%) HEPG2 120 μM” value with HEPG2 is 88 ± 5%. The “Cell viability (%) Mouse microglia 50 μM” value in the data set with Mouse microglia stood at 87 ± 6%. For the same compound, at KOR (κ opioid receptor) (setting [1]), the inhibitory constant (Ki) was 511 nM. Besides, in the data set on HEK293, the “Cell viability (%) HEK293 120 μM” value came out at 73 ± 10%.

As for `CCNC(=O)c1ncn2c1[C@@H](C)N=C(c1ccccc1F)c1cc(C3CC3)ccc1-2` [GL-III-68], the inhibition at 10 µM on DOR (δ opioid receptor) was 10%; at MOR (μ opioid receptor), 0%; with RAW macrophages, 5 ± 1%; at KOR (κ opioid receptor) ([3H]-U69593), 88%. The “Cell viability (%) HEPG2 120 μM” value with HEPG2 came to 83 ± 2%. Besides, the “Cell viability (%) Mouse microglia 50 μM” value in the data set with Mouse microglia is 83 ± 3%. Besides, the “Cell viability (%) HEK293 120 μM” value in the data set on HEK293 came to 56 ± 11%.

With `Cc1noc(-c2ncn3c2[C@@H](C)N=C(c2ccccc2F)c2cc(C4CC4)ccc2-3)n1` [GL-III-63, (R)-5-(8-Cyclopropyl-6-(2-fluorophenyl)-4-methyl-4H-benzo[f]imidazo[1,5-a][1,4]diazepin-3-yl)-3-methyl-1,2,4-oxadiazole], the inhibition at 10 µM on DOR (δ opioid receptor) amounted to 31%; on MOR (μ opioid receptor), 8%; in the data set with RAW macrophages it was 13 ± 4%; on KOR (κ opioid receptor) ([3H]-U69593), 78%. The compound further registered an inhibition at 50 µM in the data set with RAW macrophages of 62 ± 12%. Moreover, the “Cell viability (%) HEPG2 120 μM” value in the data set on HEPG2 is on record as 16 ± 6%. Also, the “toxicity at 120 μM (in words)” value in the data set with HEPG2 and with HEK293 was “toxic” each time. Besides, the “Cell viability (%) Mouse microglia 50 μM” value in the data set with Mouse microglia came to 100 ± 8%. Also, the Ki at KOR (κ opioid receptor) turned out to be 678 nM. Also, the “Cell viability (%) HEK293 120 μM” value with HEK293 was 18 ± 4%.

For `C[C@H]1N=C(c2ccccn2)c2cc(Br)ccc2-n2cnc(C(=O)O)c21` [GL-II-51], the inhibition at 10 µM was found to be 0% on DOR (δ opioid receptor), 0% on MOR (μ opioid receptor), 0% in the data set on RAW macrophages and 11% at KOR (κ opioid receptor) ([3H]-U69593). Also, the “Cell viability (%) HEPG2 120 μM” value in the data set with HEPG2 turned out to be 100 ± 16%. Further, the “Cell viability (%) Mouse microglia 50 μM” value in the data set on Mouse microglia is 95 ± 2%. Moreover, the “Cell viability (%) HEK293 120 μM” value with HEK293 is recorded as 91 ± 4%.

Take `CCOC(=O)c1ncn2c1[C@@H](C)N=C(c1ccccn1)c1cc(Br)ccc1-2` [GL-II-06]: the inhibition at 10 µM at DOR (δ opioid receptor) was determined as 9%; at MOR (μ opioid receptor) it was 11%; in the data set with RAW macrophages, 4 ± 2%; on KOR (κ opioid receptor) ([3H]-U69593) it was 79%. In addition, in the data set on HEPG2, the “Cell viability (%) HEPG2 120 μM” value was found to be 89 ± 5%. Further, in the data set on Mouse microglia, the “Cell viability (%) Mouse microglia 50 μM” value was 87 ± 13%. In addition, the Ki on KOR (κ opioid receptor) (setting [1]) worked out at 401 nM. For the same compound, the “Cell viability (%) HEK293 120 μM” value in the data set on HEK293 was found to be 83 ± 13%.

As to `C[C@H]1N=C(c2ccccc2F)c2cc(Cl)ccc2-n2cnc(C(=O)O)c21` [GL-III-54], the inhibition at 10 µM is 0% on DOR (δ opioid receptor), 0% at MOR (μ opioid receptor), 6 ± 4% in the data set on RAW macrophages and 22% on KOR (κ opioid receptor) ([3H]-U69593). The “Cell viability (%) HEPG2 120 μM” value in the data set on HEPG2 was 93 ± 4%. Also, in the data set with Mouse microglia, the “Cell viability (%) Mouse microglia 50 μM” value worked out at 82 ± 6%. Further, the “Cell viability (%) HEK293 120 μM” value in the data set on HEK293 amounted to 96 ± 12%.

Take `C[C@H]1N=C(c2ccccc2F)c2cc(Br)ccc2-n2cnc(-c3cnco3)c21` [GL-III-36]: the inhibition at 10 µM was determined as 12% on DOR (δ opioid receptor), 0% on MOR (μ opioid receptor), 0% in the data set with RAW macrophages and 88% on KOR (κ opioid receptor) ([3H]-U69593). Testing at 50 µM in the data set on RAW macrophages gave an inhibition of 58 ± 9%. Further, the “Cell viability (%) HEPG2 120 μM” value in the data set with HEPG2 turned out to be 100 ± 9%. In the data set on Mouse microglia, the “Cell viability (%) Mouse microglia 50 μM” value was determined as 97 ± 9%. For the same compound, on KOR (κ opioid receptor), the inhibitory constant (Ki) stood at 246 nM. In addition, the “Cell viability (%) HEK293 120 μM” value in the data set with HEK293 came to 80 ± 9%.

In the case of `Cc1noc(-c2ncn3c2[C@@H](C)N=C(c2ccccc2F)c2cc(Br)ccc2-3)n1` [GL-III-60, (R)-5-(8-Bromo-6-(2-fluorophenyl)-4-methyl-4H-benzo[f]imidazo[1,5-a][1,4]diazepin-3-yl)-3-methyl-1,2,4-oxadiazole], the inhibition at 10 µM was found to be 18% at DOR (δ opioid receptor), 26% at MOR (μ opioid receptor), 0% in the data set with RAW macrophages and 87% on KOR (κ opioid receptor) ([3H]-U69593). This compound also returned an inhibition at 50 µM in the data set with RAW macrophages of 39 ± 8%. Also, in the data set on HEPG2, the “Cell viability (%) HEPG2 120 μM” value is recorded as 100 ± 11%. Moreover, in the data set on Mouse microglia, the “Cell viability (%) Mouse microglia 50 μM” value came out at 100 ± 9%. Also, the Ki on KOR (κ opioid receptor) was found to be 232 nM. Besides, the “Cell viability (%) HEK293 120 μM” value in the data set with HEK293 turned out to be 64 ± 6%.

Take `C#Cc1ccc2c(c1)C(c1ccccc1F)=N[C@H](C)c1c(-c3nc(C(C)C)no3)ncn1-2` [MP-IV-010, (R)-5-(8-ethynyl-6-(2-fluorophenyl)-4-methyl-4H-benzo[f]imidazo[1,5-a][1,4]diazepin-3-yl)-3-isopropyl-1,2,4-oxadiazole]: the “Percent Competition DOR” value on DOR (δ opioid receptor) (PDSP primary screening) was found to be 5%. Moreover, the inhibition at 10 µM at DOR (δ opioid receptor) is 5%. In addition, on MOR (μ opioid receptor) (PDSP primary screening), the “Percent Competition MOR” value came out at 33%. Further, the inhibition at 10 µM at MOR (μ opioid receptor) was found to be 33%. For the same compound, in the data set with RAW macrophages, the inhibition at 10 µM was found to be 10 ± 2% and 50 µM produced 63 ± 11% inhibition. In the data set on HEPG2, the “Cell viability (%) HEPG2 120 μM” value is 45 ± 7% and the “toxicity at 120 μM (in words)” value was “to a lesser degree”. Further, the “Cell viability (%) Mouse microglia 50 μM” value in the data set on Mouse microglia came out at 91 ± 10%. The “toxicity at 50 μM (in words)” value in the data set with Mouse microglia (microglia) was “no significant toxicity”. Also, at KOR (κ opioid receptor), the concentration for half-maximal inhibition (IC50) came to 351 nM and the Ki was determined as 145 nM. Further, on KOR (κ opioid receptor) (PDSP primary screening), the “Percent Competition KOR” value was determined as 94%. The inhibition at 10 µM on KOR (κ opioid receptor) ([3H]-U69593) came to 94%. Besides, in the data set on HEK293, the “Cell viability (%) HEK293 120 μM” value is reported as 41 ± 4% and the “toxicity at 120 μM (in words)” value was “some cytotoxicity”.

As a reminder, the inhibition is the change of the read-out against control, counted positive when it falls. A word on the Ki: it is the dissociation constant of the complex between target and ligand, obtained from inhibition or displacement. A word on the IC50: it is the point on the concentration scale where inhibition reaches its midpoint.
